According to US8658668B2, “PI3 kinase/mTOR dual inhibitor” (Eli Lilly and Company, priority 2011, dated 2014):

What was measured:
Assay type in all cases: cell-based
786-O = assay: Cell proliferation assay (CellTiter-Glo), 786-O; conditions: Homo sapiens, 786-0, 72 h
Protocol: (§1) Plate cells in a 96-well plate at 2000 cells/well in 100 μL of cell specific medium (for U87MG use DMEM, 10% FBS, 25 mM 4-(2-hydroxyethyl)-1-piperazineethanesulfonic acid (HEPES), 1.0 mM sodium pyruvate, and 0.1 mM Non Essential Amino Acids (ATCC Cat.#30-2002); for HT1080 use Eagle's MEM, 10% FBS (ATCC Cat.#30-2003); for H1975, A2780, SJSA-1 and 786-O use RPMI 1640, 10% FBS (ATCC Cat.#30-2001); for A204 use McCoy's 5A, 10% FBS (ATCC Cat.#30-2007) except in column 1 use medium only as the blank control. Incubate the plates overnight at 37° C. and 5% CO2. On the next day, prepare compound stocks at 1 mM in DMSO and serially dilute in DMSO in a 96-well round bottom polypropylene plate. Assay compounds at 10 concentrations in duplicate, 4 compounds per plate.
(§2) Transfer 4 μL of the DMSO serial dilutions to a 96 well plate and add 196 μL of culture medium to create a 10× stock for dosing. Gently transfer 11 μL of each dosing stock to the corresponding well of the cell plate resulting in a 0.2% DMSO concentration and a 111 μL final volume. […]
(§3) Prepared the CellTiter-Glo reagent (Promega, Cat: G7571) and add 100 µL to each well after the incubation is complete, homogenize the cells by mixing on an orbital shaker for 2 min and then incubate at RT for 10 min to allow the luminescent signal to stabilize. Record the luminescent raw data with a Wallac Victor V plate reader. […]

P70S6(pT389) = assay: AlphaScreen SureFire p-p70S6 kinase (Thr389) in U87MG cells; conditions: Homo sapiens, U-87 MG, 1 h, n = 4, read-out: P70S6(pT389) Absolute IC50
Protocol: (§4) This homogeneous assay format uses immuno-sandwich capture of the phosphorylated analyte and then detection with antibody-coated Alphascreen beads to generate an amplified signal.
(§5) Maintain U87MG cells in U87MG growth medium consisting of DMEM (GIBCO 11965-092) supplemented with 10% fetal bovine serum (FBS, GIBCO, 10091-141), 1% nonessential amino acids (GIBCO, 11140-050) and 1% sodium pyruvate (GIBCO, 11360-070). Harvest cells using standard cell culture procedures and then count using Vi-Cell. Plate 100 μL of U87MG cells in growth medium (50,000 cells/well) into Costar #3596 96 well plates and incubate overnight at 37° C., 5% CO2.
(§6) Incubate for one h at 37° C., then remove the medium and add 50 μL of 1× SureFire Lysis Buffer (TGR Biosciences SureFire® Kit component) to each well and incubate at room temperature for 10 min with gentle shaking Transfer 6 μL lysate and 10 μL reaction mixture (60 parts reaction buffer/10 parts activation buffer/1 part each of donor and acceptor beads, Perkin Elmer, 6760617R) to a 384 well proxiplate (Perkin Elmer, 6006280) for the p-p70S6 kinase (Thr389) and p-AKT(Ser473) assays. Seal the plate and incubate at RT for 4 h. […] Read the plates on a Perkin Elmer EnVision equipped with a TurboModule using standard AlphaScreen® settings (Ex680 nm and Em520-620 nm). […]

S6RP(pS240/242) = assay: Phosphorylated S6RP in U87MG cells; conditions: Homo sapiens, U-87 MG, n = 3, read-out: S6RP(pS240/242) Absolute IC50
Protocol: as §4, §5, §6

[1] = system: HNXF 908 human tumor xenograft cells; assay: Oncotest tumor clonogenic assay, HNXF 908; conditions: colony formation, Head and Neck HNXF 908, squamous epithelium carcinoma, md, read-out: Absolute IC50
[2] = system: BXF 1218 human tumor xenograft cells; assay: Oncotest tumor clonogenic assay, BXF 1218; conditions: colony formation, Bladder BXF 1218, transitional cell carcinoma, read-out: Absolute IC50
[3] = system: HNXF 536 human tumor xenograft cells; assay: Oncotest tumor clonogenic assay, HNXF 536; conditions: colony formation, Head and Neck HNXF 536, squamous epithelium carcinoma, wd, read-out: Absolute IC50
[4] = system: LXFL 529 human tumor xenograft cells; assay: Oncotest tumor clonogenic assay, LXFL 529; conditions: colony formation, NSCLC LXFL 529, large cell lung carcinoma, pd, read-out: Absolute IC50
A2780 = assay: Cell proliferation assay (CellTiter-Glo), A2780; conditions: Homo sapiens, A2780, 72 h
Protocol: as §1, §2, §3

[5] = system: OVXF 1353 human tumor xenograft cells; assay: Oncotest tumor clonogenic assay, OVXF 1353; conditions: colony formation, Ovary OVXF 1353, adeno carcinoma, pd, read-out: Absolute IC50
[6] = system: MAXF 1322 human tumor xenograft cells; assay: Oncotest tumor clonogenic assay, MAXF 1322; conditions: colony formation, Mammary MAXF 1322, pap. adeno carcinoma, pd, read-out: Absolute IC50
[7] = system: PAXF 546 human tumor xenograft cells; assay: Oncotest tumor clonogenic assay, PAXF 546; conditions: PAXF546, colony formation, Pancreas PAXF 546, inf., mucous squamous cell carcinoma, read-out: Absolute IC50
[8] = system: MEXF 1539 human tumor xenograft cells; assay: Oncotest tumor clonogenic assay, MEXF 1539; conditions: colony formation, Melanoma MEXF 1539, amelanotic melanoma, md, read-out: Absolute IC50
[9] = system: LXFL 1072 human tumor xenograft cells; assay: Oncotest tumor clonogenic assay, LXFL 1072; conditions: colony formation, NSCLC LXFL 1072, large cell lung carcinoma, pd, read-out: Absolute IC50
[10] = system: LXFA 983 human tumor xenograft cells; assay: Oncotest tumor clonogenic assay, LXFA 983; conditions: colony formation, NSCLC LXFA 983, adeno carcinoma, pd, read-out: Absolute IC50
[11] = system: PXF 1752 human tumor xenograft cells; assay: Oncotest tumor clonogenic assay, PXF 1752; conditions: colony formation, Pleuramesothelioma PXF 1752, pleuramesothelioma, read-out: Absolute IC50

Work on `CO[C@@H](C)Cn1c(=O)n(C)c2cnc3ccc(-c4cncc(C(C)(C)O)c4)cc3c21` [Example 1, 8-[5-(1-Hydroxy-1-methylethyl)pyridin-3-yl]-1-[(2S)-2-methoxypropyl]-3-methyl-1,3-dihydro-2H-imidazo[4,5-c]quinolin-2-one] yielded an IC50 (786-O) of 126 nM, an IC50 (P70S6(pT389)) of 10.6 nM and an IC50 (S6RP(pS240/242)) of 19.1 nM. For the same compound, the IC50 [1] was 52 nM, the IC50 [2] was 48 nM and the IC50 [3] was 55 nM. It also gave an IC50 [4] of 128 nM, an IC50 (A2780) of 90 nM and an IC50 [5] of over 200 nM. It also gave an IC50 [6] of 3 nM, an IC50 [7] of 105 nM and an IC50 [8] of 246 nM. It also gave an IC50 [9] of 214 nM, an IC50 [10] of 103 nM and an IC50 [11] of 32 nM.
